Experimental data taken from patent US20260293896A1, “PLANT GROWTH REGULATOR, PLANT GROWTH ACCELERATION METHOD, OR PLANT GROWTH-REGULATING PRODUCT” (KUREHA CORPORATION, priority 2022, published 2026).

Legend:
Format in all cases: in vivo
[1] = test system: Arabidopsis thaliana (Col-0); experiment: Evaluation Example 2: Comparison of Seed Yield of Arabidopsis thaliana; conditions: 50 mL added on 8th, 10th, 12th, 14th days after seeding; harvest 89th day; EGT 1 mM and/or component (A) 0.1 mM
Protocol: The plant growth regulators of Examples 3 to 5 and Comparative Examples 4 to 7 were prepared so as to attain the concentrations indicated in Table 2 below. EGT, citric acid, GB and GSSG were commercially available products, and pure water was used as a solvent.
One individual Arabidopsis thaliana (Col-0) was sown in a plastic pot having a diameter of 60 mm and a height of 55 mm. Plastic deep dishes each having a diameter of 160 mm and a height of 28 mm were prepared, and six pots were respectively placed therein. As soil, 45 mL of vermiculite, 22.5 mL of granular soil (Kumiai horticultural soil), and 22.5 mL of vermiculite were placed in the pot in this order.
In a growth chamber set at room temperature of 22° C., the light period was 16 hours and the dark period was 8 hours. The light conditions were set such that the light intensity was 5000 lx in the central part under irradiation with the fluorescent lamp. Water supply was conducted from the bottom, and the water level was set at about 5 mm. Chemical treatment was started […]. More specifically, on the 8th, 10th, 12th, and 14th days after seeding, 50 mL of the plant growth regulator was added instead of water supply.
On the 89th day after seeding, seeds were harvested, and the seed yield was evaluated.

[2] = test system: rapeseed; experiment: Evaluation Example 3: Comparison of Elongated Plant Height of Rapeseed; conditions: petri dish, 5 mL, 24° C, 7th day after seeding, EGT 1 mM and/or Arg 1 mM
Protocol: The plant growth regulators of Example 6 and Comparative Examples 8 and 9 were prepared so as to attain the concentrations indicated in Table 3 below. EGT and Arg were commercially available products, and pure water was used as a solvent.
(§1) Into a 9 cm petri dish on which filter paper was spread, 5 mL of the plant growth regulator was added. Seven seeds of rapeseed were sown per one petri dish. In a thermostatic chamber set at room temperature of 24° C., the light period was 16 hours and the dark period was 8 hours. The light conditions were set using a fluorescent lamp (PLANT FLEC, 40 W LED fluorescent lamp for plant growth, electric bulb color, available from Nippon Medical and Chemical Instruments Co., Ltd.) such that the light intensity was 5000 lx in the central part under irradiation with the fluorescent lamp.
(§2) The plant height of the rapeseed on the 7th day after seeding was evaluated.

[3] = test system: rapeseed; experiment: Evaluation Example 4: Comparison of Elongated Plant Height of Rapeseed; conditions: petri dish, 5 mL, 24° C, 7th day after seeding, EGT 1 mM and/or component (A) 1 mM
Protocol: The plant growth regulators of Examples 7 and 8 and Comparative Examples 10 to 12 were prepared so as to attain the concentrations indicated in Table 4 below. EGT, Asn and Lys were commercially available products, and pure water was used as a solvent.
as §1, with “Ten” for “Seven”
as §2

[4] = test system: rapeseed; experiment: Evaluation Example 7: Comparison of Elongated Plant Height of Rapeseed; conditions: petri dish, 5 mL, 24° C, 7th day after seeding, EGT 0.5 mM and/or uracil 0.5 mM
Protocol: The plant growth regulators of Example 18 and Comparative Examples 24 and 25 were prepared so as to attain the concentrations indicated in Table 7 below. EGT and uracil were commercially available products, and pure water was used as a solvent.
as §1, with “Ten” for “Seven”
as §2

[5] = test system: wheat; experiment: Evaluation Example 8: Comparison of Elongated Plant Height of Wheat; conditions: petri dish, 5 mL, 24° C, 7th day after seeding, EGT 0.5 mM and/or component (A) 0.5 mM
Protocol: The plant growth regulators of Examples 19 and 20 and Comparative Examples 26 to 28 were prepared so as to attain the concentrations indicated in Table 8 below. EGT, guanine and thymine were commercially available products, and pure water was used as a solvent.
as §1, with “Ten” for “Seven”, “wheat” for “rapeseed”
(§3) The plant height of the wheat on the 7th day after seeding was evaluated.

[6] = test system: wheat; experiment: Evaluation Example 9: Comparison of Elongated Plant Height of Wheat; conditions: petri dish, 5 mL, 24° C, 7th day after seeding, EGT 0.5 mM and/or component (A) 0.5 mM
Protocol: The plant growth regulators of Examples 21 and 22 and Comparative Examples 29 to 31 were prepared so as to attain the concentrations indicated in Table 9 below. EGT, trehalose and inositol were commercially available products, and pure water was used as a solvent.
as §1, with “Ten” for “Seven”, “wheat” for “rapeseed”
as §3

[7] = test system: tomato (Micro Tom); experiment: Evaluation Example 12: Comparison of Number of Flowers and Buds of Tomato; conditions: 50 mL on 32nd, 34th, 36th days, evaluated 83rd day after seeding, EGT 0.1 mM and/or component (A) 0.1 mM
Protocol: The plant growth regulators of Examples 32 and 33 and Comparative Examples 43 to 45 were prepared so as to attain the concentrations indicated in Table 12 below. EGT, Arg and Glu were commercially available products, and pure water was used as a solvent.
In a plastic pot having a diameter of 135 mm and a height of 110 mm, 1 kg of granular soil (Kumiai horticultural soil) was placed, and one individual tomato (Micro Tom) was sown per one pot.
(§4) The tomato was managed in a greenhouse set at room temperature of 25° C. Chemical treatment was started 5 weeks after seeding. More specifically, on the 32nd, 34th, and 36th days after seeding, 50 mL of the plant growth regulator was added.
On the 83rd day after seeding, the number of flowers and buds was evaluated.

[8] = test system: tomato (Regina); experiment: Evaluation Example 14: Comparison of Number of Fruits and Total Fruit Weight of Tomato; conditions: 50 mL on 32nd, 34th, 36th days, fruits ≥20 mm collected 75th day after seeding, EGT 0.1 mM and/or Arg 0.1 mM
Protocol: The plant growth regulators of Example 35 and Comparative Examples 48 and 49 were prepared so as to attain the concentrations indicated in Table 14 below. EGT and Arg were commercially available products, and pure water was used as a solvent.
In a plastic pot having a diameter of 135 mm and a height of 110 mm, 1 kg of granular soil (Kumiai horticultural soil) was placed, and one individual tomato (Regina) was sown per one pot.
as §4
On the 75th day after seeding, fruits having a diameter of 20 mm or greater were collected, and the number and total weight of the collected fruits were evaluated.

[9] = test system: wheat; experiment: Evaluation Example 15: Comparison of Elongated Plant Height of Wheat; conditions: petri dish, 5 mL, 24° C, 7th day after seeding, EGT 1 mM and/or carnitine 10 mM
Protocol: The plant growth regulators of Example 36 and Comparative Examples 50 and 51 were prepared so as to attain the concentrations indicated in Table 15 below. EGT and carnitine were commercially available products, and pure water was used as a solvent.
as §1, with “Ten” for “Seven”, “wheat” for “rapeseed”
as §3

[10] = test system: wheat; experiment: Evaluation Example 16: Comparison of Elongated Plant Height of Wheat; conditions: petri dish, 5 mL, 24° C, 7th day after seeding, EGT 1 mM and/or trehalose 0.01 or 0.1 mM
Protocol: The plant growth regulators of Examples 37 and 38 and Comparative Examples 52 to 54 were prepared so as to attain the concentrations indicated in Table 16 below. EGT and trehalose were commercially available products, and pure water was used as a solvent.
as §1, with “Ten” for “Seven”, “wheat” for “rapeseed”
as §3

[11] = test system: wheat; experiment: Evaluation Example 17: Comparison of Elongated Plant Height of Wheat; conditions: petri dish, 5 mL, 24° C, 7th day after seeding, EGT 1 mM and/or uracil 0.01, 0.1 or 10 mM
Protocol: The plant growth regulators of Examples 39 to 41 and Comparative Examples 55 to 58 were prepared so as to attain the concentrations indicated in Table 17 below. EGT and uracil were commercially available products, and pure water was used as a solvent.
as §1, with “Ten” for “Seven”, “wheat” for “rapeseed”
as §3

`C[N+](C)(C)[C@@H](Cc1c[nH]c(=S)[nH]1)C(=O)[O-]` [Comparative Example 4, L-(+)-ergothioneine] was tested, and the “Seed yield, ratio to untreated control” value [1] was 1.2.

For `O=C(O)CC(O)(CC(=O)O)C(=O)O` [Comparative Example 5, citric acid], the “Seed yield, ratio to untreated control” value [1] was 0.8.

With `C[N+](C)(C)[C@@H](Cc1c[nH]c(=S)[nH]1)C(=O)[O-]` [Comparative Example 8, L-(+)-ergothioneine] the “Elongated plant height, ratio to untreated control” value (“Elongated plant height, ratio” for short) [2] was 1.2.

With `N=C(N)NCCC[C@H](N)C(=O)O` [Comparative Example 9, L-arginine] the “Elongated plant height, ratio” value [2] was 0.9.

For `C[N+](C)(C)[C@@H](Cc1c[nH]c(=S)[nH]1)C(=O)[O-]` [Comparative Example 10, L-(+)-ergothioneine], the “Elongated plant height, ratio” value [3] was 1.1.

For `C[N+](C)(C)[C@@H](Cc1c[nH]c(=S)[nH]1)C(=O)[O-]` [Comparative Example 24, L-(+)-ergothioneine], the “Elongated plant height, ratio” value [4] was 1.1.

`O=c1cc[nH]c(=O)[nH]1` [Comparative Example 25, uracil] was tested, and the “Elongated plant height, ratio” value [4] was 1.0.

`C[N+](C)(C)[C@@H](Cc1c[nH]c(=S)[nH]1)C(=O)[O-]` [Comparative Example 26, L-(+)-ergothioneine] was tested, and the “Elongated plant height, ratio” value [5] was 1.1.

For `C[N+](C)(C)[C@@H](Cc1c[nH]c(=S)[nH]1)C(=O)[O-]` [Comparative Example 29, L-(+)-ergothioneine], the “Elongated plant height, ratio” value [6] was 1.1.

For `C[N+](C)(C)[C@@H](Cc1c[nH]c(=S)[nH]1)C(=O)[O-]` [Comparative Example 43, L-(+)-ergothioneine], the “Total number of flowers and buds, ratio to untreated control” value (from here on “Total number of flowers and buds, ratio”) [7] was 1.1.

With `C[N+](C)(C)[C@@H](Cc1c[nH]c(=S)[nH]1)C(=O)[O-]` [Comparative Example 48, L-(+)-ergothioneine] the “Number of fruits, ratio to untreated control” value [8] was 1.2 and the “Total fruit weight, ratio to untreated control” value [8] was 1.2.

`N=C(N)NCCC[C@H](N)C(=O)O` [Comparative Example 49, L-arginine] was tested, and the “Number of fruits, ratio to untreated control” value [8] was 1.0 and the “Total fruit weight, ratio to untreated control” value [8] was 0.9.

In the case of `C[N+](C)(C)[C@@H](Cc1c[nH]c(=S)[nH]1)C(=O)[O-]` [Comparative Example 50, L-(+)-ergothioneine], the “Elongated plant height, ratio” value [9] is reported as 1.1.

In the case of `C[N+](C)(C)CC(O)CC(=O)[O-]` (centres unmarked) [Comparative Example 51, carnitine], the “Elongated plant height, ratio” value [9] is reported as 1.0.

`C[N+](C)(C)[C@@H](Cc1c[nH]c(=S)[nH]1)C(=O)[O-]` [Comparative Example 52, L-(+)-ergothioneine] was tested, and the “Elongated plant height, ratio” value [10] was 1.1.

`C[N+](C)(C)[C@@H](Cc1c[nH]c(=S)[nH]1)C(=O)[O-]` [Comparative Example 55, L-(+)-ergothioneine] was tested, and the “Elongated plant height, ratio” value [11] was 1.1.

With `C[N+](C)(C)CC(=O)[O-]` [compound 6, glycine betaine] the “Seed yield, ratio to untreated control” value [1] was 1.0.

In the case of `NC(=O)C[C@H](N)C(=O)O` [compound 11, L-asparagine], the “Elongated plant height, ratio” value [3] is reported as 1.1.

`NCCCC[C@H](N)C(=O)O` [compound 12, L-lysine] was tested, and the “Elongated plant height, ratio” value [3] was 0.6.

With `Nc1nc2nc[nH]c2c(=O)[nH]1` [compound 27, guanine] the “Elongated plant height, ratio” value [5] was 0.9.

With `Cc1c[nH]c(=O)[nH]c1=O` [compound 28, thymine] the “Elongated plant height, ratio” value [5] was 0.9.

For `OC[C@H]1O[C@H](O[C@H]2O[C@H](CO)[C@@H](O)[C@H](O)[C@H]2O)[C@H](O)[C@@H](O)[C@@H]1O` [compound 30, trehalose], the “Elongated plant height, ratio” value [6] was 1.0.

In the case of `O[C@H]1[C@H](O)[C@@H](O)[C@H](O)[C@@H](O)[C@H]1O` [compound 31, inositol], the “Elongated plant height, ratio” value [6] is reported as 0.9.

`N=C(N)NCCC[C@H](N)C(=O)O` [compound 44, L-arginine] was tested, and the “Total number of flowers and buds, ratio” value [7] was 1.0.

In the case of `N[C@@H](CCC(=O)O)C(=O)O` [compound 45, L-glutamic acid], the “Total number of flowers and buds, ratio” value [7] is reported as 1.0.

`OC[C@H]1O[C@H](O[C@H]2O[C@H](CO)[C@@H](O)[C@H](O)[C@H]2O)[C@H](O)[C@@H](O)[C@@H]1O` [compound 53, trehalose] was tested, and the “Elongated plant height, ratio” value [10] was 1.0.

For `OC[C@H]1O[C@H](O[C@H]2O[C@H](CO)[C@@H](O)[C@H](O)[C@H]2O)[C@H](O)[C@@H](O)[C@@H]1O` [compound 54, trehalose], the “Elongated plant height, ratio” value [10] was 0.9.

For `O=c1cc[nH]c(=O)[nH]1` [compound 56, uracil], the “Elongated plant height, ratio” value [11] was 1.1.

For `O=c1cc[nH]c(=O)[nH]1` [compound 57, uracil], the “Elongated plant height, ratio” value [11] was 1.0.

With `O=c1cc[nH]c(=O)[nH]1` [compound 58, uracil] the “Elongated plant height, ratio” value [11] was 1.0.
